According to US9302999B2, “Substituted triazoles as herbicides” (E. I. DU PONT DE NEMOURS AND COMPANY, priority 2012, dated 2016):

How the values were obtained:
Assay type in all cases: in vivo
[1] = test system: foxtail, green (green foxtail, Setaria viridis); experiment: Test C pre-/postemergence: foxtail, green
Source text: (§1) Seeds of plant species selected from blackgrass (Alopecurus myosuroides), bromegrass, downy (downy bromegrass, Bromus tectorum), foxtail, green (green foxtail, Setaria viridis), ryegrass, Italian (Italian ryegrass, Lolium multiflorum), winter wheat (Triticum aestivum), wild oat (Avena fatua), galium (catchweed bedstraw, Galium aparine), bermudagrass (Cynodon dactylon), surinam grass (Brachiaria decumbens), cocklebur (common cocklebur, Xanthium strumarium), corn (Zea mays), large crabgrass (Digitaria sanguinalis), woolly cupgrass (Eriochloa villosa), foxtail, giant (giant foxtail, Setaria faberii), goosegrass (Eleusine indica), johnsongrass (Sorghum halepense), kochia (Kochia scoparia), lambsquarters (Chenopodium album), morningglory (Ipomoea coccinea), nightshade (eastern black nightshade, Solanum ptycanthum), nutsedge, yellow (yellow nutsedge, Cyperus esculentus), pigweed (Amaranthus retroflexus), ragweed (common ragweed, Ambrosia elation), soybean (Glycine max), common (oilseed) sunflower (Helianthus annuus), Russian thistle (Salsola kali) and velvetleaf (Abutilon theophrasti) were planted into a blend of loam soil and sand and treated preemergence with test chemicals formulated in a non-phytotoxic solvent mixture which included a surfactant.
(§2) At the same time, plants selected from these crop and weed species and also barley (winter barley, Hordeum vulgare), canarygrass (Phalaris minor), chickweed (common chickweed, Stellaria media) windgrass (Apera spica-venti) and deadnettle (henbit deadnettle, Lamium amplexicaule) were planted in pots containing Redi-Earth® planting medium (Scotts Company, 14111 Scottslawn Road, Marysville, Ohio 43041) comprising spaghnum peat moss, vermiculite, wetting agent and starter nutrients and treated with postemergence applications of test chemicals formulated in the same manner. Plants ranged in height from 2 to 18 cm (1- to 4-leaf stage) for postemergence treatments.
(§3) Treated plants and controls were maintained in a greenhouse for 13 to 15 days, after which time all species were compared to controls and visually evaluated. Plant response ratings, summarized in Table C, are based on a scale of 0 to 100 where 0 is no effect and 100 is complete control. A dash (-) response means no test result.

[2] = test system: bromegrass, downy (downy bromegrass, Bromus tectorum); experiment: Test D pre-/postemergence: bromegrass, downy
Method in brief: (§4)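 Applied as a non-phytotoxic solvent formulation with surfactant, compounds were tested preemergence in silt loam and postemergence on seedlings 2 to 18 cm high in peat-vermiculite medium. Evaluation was visual, 0 meaning no effect and 100 complete control, at 14 to 21 days.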

[3] = test system: blackgrass (Alopecurus myosuroides); experiment: Test D pre-/postemergence: blackgrass
Source text: (§5) Seeds of plant species selected from bluegrass (annual bluegrass, Poa annua), blackgrass (Alopecurus myosuroides), canarygrass (Phalaris minor), chickweed (common chickweed, Stellaria media), galium (catchweed bedstraw, Galium aparine), bromegrass, downy (downy bromegrass, Bromus tectorum), field poppy (Papaver rhoeas), field violet (Viola arvensis), foxtail, green (green foxtail, Setaria viridis), deadnettle (henbit deadnettle, Lamium amplexicaule), ryegrass, Italian (Italian ryegrass, Lolium multiflorum), kochia (Kochia scoparia), lambsquarters (Chenopodium album), oilseed rape (Brassica napus), pigweed (Amaranthus retroflexus), Russian thistle (Salsola iberica), chamomile (scentless chamomile, Matricaria inodora), speedwell (bird's-eye speedwell, Veronica persica), barley, spring (spring barley, Hordeum vulgare), wheat, spring (spring wheat, Triticum aestivum), buckwheat, wild (wild buckwheat, Polygonum convolvulus), mustard, wild (wild mustard, Sinapis arvensis), oat, wild (wild oat, Avena fatua), radish, wild (wild radish, Raphanus raphanistrum), windgrass (Apera spica-venti), barley, winter (winter barley, Hordeum vulgare), and wheat, winter (winter wheat, Triticum aestivum) were planted into a silt loam soil and treated preemergence with test chemicals formulated in a non-phytotoxic solvent mixture which included a surfactant. At the same time, these same crop and weed species were planted in pots containing the planting medium comprising spaghnum peat moss, vermiculite, wetting agent and starter nutrients and treated with postemergence applications of the test chemicals formulated in the same manner. Plants ranged in height from 2 to 18 cm (1- to 4-leaf stage).
as §3, with “controlled growth environment” for “greenhouse”, “14” for “13”, “21 days” for “15 days,”, “D,” for “C,”

[4] = test system: barley, winter (winter barley, Hordeum vulgare); experiment: Test D pre-/postemergence: barley, winter
Source text: as §5
as §3, with “controlled growth environment” for “greenhouse”, “14” for “13”, “21 days” for “15 days,”, “D,” for “C,”

[5] = test system: chickweed (common chickweed, Stellaria media); experiment: Test D pre-/postemergence: chickweed; details: Postemergence; for Plant response rating, Chickweed: 16 g ai/ha, scale 0 to 100
Method in brief: as §4

[6] = test system: surinam grass (Brachiaria decumbens); experiment: Test C pre-/postemergence: surinam grass; details: Postemergence
Source text: as §1, §2, §3

[7] = test system: canarygrass (Phalaris minor); experiment: Test C postemergence: canarygrass
Method in brief: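 Response values are visual ratings, 0 (no effect) to 100 (complete control), made by comparison with untreated controls 13 to 15 days after postemergence treatment of greenhouse-grown potted plants that were 2 to 18 cm high at spraying.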

[8] = test system: goosegrass (Eleusine indica); experiment: Test C pre-/postemergence: goosegrass; details: Postemergence
Method in brief: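 Visual injury scored 0–100 (100 = complete control) against untreated controls after 13–15 greenhouse days. Surfactant-containing solvent formulations applied either to soil after sowing (loam/sand) or over 1- to 4-leaf plants, 2–18 cm tall.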

[9] = test system: lambsquarters (Chenopodium album); experiment: Test D pre-/postemergence: lambsquarters
Method in brief: as §4

[10] = test system: deadnettle (henbit deadnettle, Lamium amplexicaule); experiment: Test D pre-/postemergence: deadnettle
Method in brief: as §4

[11] = Postemergence, 31 g ai/ha, scale 0 to 100 (0 no effect, 100 complete control)
[12] = Postemergence, 62 g ai/ha, scale 0 to 100 (0 no effect, 100 complete control)
[13] = Postemergence, 125 g ai/ha, scale 0 to 100, 0 no effect, 100 complete control
[14] = Postemergence, 250 g ai/ha, scale 0 to 100 (0 no effect, 100 complete control)
[15] = Postemergence, 16 g ai/ha, scale 0 to 100
[16] = Preemergence, 16 g ai/ha, scale 0 to 100 (0 no effect, 100 complete control)
[17] = Preemergence, 31 g ai/ha, scale 0 to 100 (0 no effect, 100 complete control)
[18] = Preemergence, 62 g ai/ha, scale 0 to 100
[19] = Preemergence, 125 g ai/ha, scale 0 to 100
[20] = Preemergence, 250 g ai/ha, scale 0 to 100
[21] = 31 g ai/ha, scale 0 to 100 (0 no effect, 100 complete control)
[22] = 62 g ai/ha, scale 0 to 100 (0 no effect, 100 complete control)
[23] = 125 g ai/ha, scale 0 to 100, 0 no effect, 100 complete control
[24] = 250 g ai/ha, scale 0 to 100 (0 no effect, 100 complete control)

Cc1nn(-c2ccc(F)cc2)nc1Cc1ccnc(C(F)(F)F)c1 [Compound 16, 4-[[2-(4-fluorophenyl)-5-methyl-2H-1,2,3-triazol-4-yl]methyl]-2-(trifluoromethyl)pyridine]
Plant response rating, Foxtail, Green [1, 11]: 30 | Plant response rating, Foxtail, Green [1, 12]: 98 | Plant response rating, Foxtail, Green [1, 13]: 98 | Plant response rating, Foxtail, Green ([1]; Preemergence, 31 g ai/ha, scale of 0 to 100, 0 is no effect, 100 is complete control): 100 | Plant response rating, Foxtail, Green ([1]; Preemergence, 62 g ai/ha, scale of 0 to 100, 0 is no effect, 100 is complete control): 100 | Plant response rating, Foxtail, Green ([1]; Preemergence, 125 g ai/ha, scale 0 to 100, 0 no effect, 100 complete control): 100 | Plant response rating, Foxtail, Green ([1]; Preemergence, 250 g ai/ha, scale 0 to 100, 0 no effect, 100 complete control): 100 | Plant response rating: Bromegrass, Downy [2, 11]: 10 | Plant response rating: Bromegrass, Downy [2, 12]: 20 | Plant response rating: Bromegrass, Downy [2, 13]: 40 | Plant response rating: Bromegrass, Downy [2, 14]: 50 | Plant response rating, Bromegrass, Downy [2, 15]: 0 | Plant response rating, Bromegrass, Downy [2, 16]: 0 | Plant response rating, Bromegrass, Downy [2, 17]: 20 | Plant response rating, Bromegrass, Downy [2, 18]: 25 | Plant response rating, Bromegrass, Downy [2, 19]: 25 | Plant response rating, Bromegrass, Downy [2, 20]: 40 | Plant response rating: Blackgrass [3, 11]: 10 | Plant response rating: Blackgrass [3, 12]: 20 | Plant response rating: Blackgrass [3, 13]: 25 | Plant response rating: Blackgrass [3, 14]: 40 | Plant response rating, Blackgrass [3, 15]: 5 | Plant response rating, Blackgrass [3, 16]: 0 | Plant response rating, Blackgrass [3, 17]: 0 | Plant response rating, Blackgrass [3, 18]: 40 | Plant response rating, Blackgrass [3, 19]: 70 | Plant response rating, Blackgrass [3, 20]: 100 | Plant response rating: Barley, Winter [4, 11]: 10 | Plant response rating: Barley, Winter [4, 12]: 10 | Plant response rating: Barley, Winter [4, 13]: 25 | Plant response rating: Barley, Winter [4, 14]: 40 | Plant response rating, Barley, Winter [4, 15]: 5 | Plant response rating, Barley, Winter [4, 16]: 0 | Plant response rating, Barley, Winter [4, 17]: 0 | Plant response rating, Barley, Winter [4, 18]: 5 | Plant response rating, Barley, Winter [4, 19]: 10 | Plant response rating, Barley, Winter [4, 20]: 25 | Plant response rating: Chickweed [5, 21]: 70 | Plant response rating: Chickweed [5, 22]: 90 | Plant response rating: Chickweed [5, 23]: 95 | Plant response rating: Chickweed [5, 24]: 95 | Plant response rating, Chickweed [5]: 40 | Plant response rating, Surinam Grass [6, 21]: 5 | Plant response rating, Surinam Grass [6, 22]: 5 | Plant response rating, Surinam Grass [6, 23]: 10 | Plant response rating, Surinam Grass ([6]; 250 g ai/ha, scale 0 to 100): 45 | Plant response rating, Canarygrass [7, 21]: 20 | Plant response rating, Canarygrass [7, 22]: 60 | Plant response rating, Canarygrass [7, 23]: 60 | Plant response rating, Canarygrass ([7]; 250 g ai/ha, scale 0 to 100): 90 | Plant response rating, Goosegrass [8, 21]: 5 | Plant response rating, Goosegrass [8, 22]: 5 | Plant response rating, Goosegrass [8, 23]: 10 | Plant response rating, Goosegrass ([8]; 250 g ai/ha, scale 0 to 100): 10 | Plant response rating: Lambsquarters [9, 11]: 80 | Plant response rating: Lambsquarters [9, 12]: 100 | Plant response rating: Lambsquarters [9, 13]: 100 | Plant response rating: Lambsquarters [9, 14]: 100 | Plant response rating, Lambsquarters [9, 15]: 75 | Plant response rating, Lambsquarters [9, 16]: 30 | Plant response rating, Lambsquarters [9, 17]: 50 | Plant response rating, Lambsquarters [9, 18]: 80 | Plant response rating, Lambsquarters [9, 19]: 95 | Plant response rating, Lambsquarters [9, 20]: 100 | Plant response rating: Deadnettle [10, 11]: 25 | Plant response rating: Deadnettle [10, 12]: 45 | Plant response rating: Deadnettle [10, 13]: 50 | Plant response rating: Deadnettle [10, 14]: 90 | Plant response rating, Deadnettle [10, 15]: 10 | Plant response rating, Deadnettle [10, 16]: 0 | Plant response rating, Deadnettle [10, 17]: 40 | Plant response rating, Deadnettle [10, 18]: 60 | Plant response rating, Deadnettle [10, 19]: 100 | Plant response rating, Deadnettle [10, 20]: 100

Cc1nn(-c2ccnc(C(F)(F)F)c2)nc1Cc1ccnc(C(F)(F)F)c1 [Compound 137]
Plant response rating, Foxtail, Green [1, 11]: 80 | Plant response rating, Foxtail, Green [1, 12]: 85 | Plant response rating, Foxtail, Green [1, 13]: 95 | Plant response rating, Foxtail, Green ([1]; Postemergence, 250 g ai/ha, scale 0 to 100): 95 | Plant response rating: Bromegrass, Downy [2, 11]: 15 | Plant response rating: Bromegrass, Downy [2, 12]: 20 | Plant response rating: Bromegrass, Downy [2, 13]: 30 | Plant response rating: Bromegrass, Downy [2, 14]: 40 | Plant response rating, Bromegrass, Downy [2, 15]: 5 | Plant response rating: Blackgrass [3, 11]: 30 | Plant response rating: Blackgrass [3, 12]: 50 | Plant response rating: Blackgrass [3, 13]: 70 | Plant response rating: Blackgrass [3, 14]: 80 | Plant response rating, Blackgrass [3, 15]: 10 | Plant response rating: Barley, Winter [4, 11]: 5 | Plant response rating: Barley, Winter [4, 12]: 5 | Plant response rating: Barley, Winter [4, 13]: 1 | Plant response rating: Barley, Winter [4, 14]: 10 | Plant response rating, Barley, Winter [4, 15]: 0 | Plant response rating: Chickweed [5, 21]: 50 | Plant response rating: Chickweed [5, 22]: 80 | Plant response rating: Chickweed [5, 23]: 85 | Plant response rating: Chickweed [5, 24]: 90 | Plant response rating, Chickweed [5]: 40 | Plant response rating, Surinam Grass [6, 21]: 40 | Plant response rating, Surinam Grass [6, 22]: 45 | Plant response rating, Surinam Grass [6, 23]: 45 | Plant response rating, Surinam Grass ([6]; 250 g ai/ha, scale 0 to 100): 45 | Plant response rating, Canarygrass [7, 21]: 45 | Plant response rating, Canarygrass [7, 22]: 60 | Plant response rating, Canarygrass [7, 23]: 70 | Plant response rating, Canarygrass ([7]; 250 g ai/ha, scale 0 to 100): 75 | Plant response rating, Goosegrass [8, 21]: 20 | Plant response rating, Goosegrass [8, 22]: 25 | Plant response rating, Goosegrass [8, 23]: 65 | Plant response rating: Lambsquarters [9, 11]: 75 | Plant response rating: Lambsquarters [9, 12]: 80 | Plant response rating: Lambsquarters [9, 13]: 95 | Plant response rating: Lambsquarters [9, 14]: 95 | Plant response rating, Lambsquarters [9, 15]: 40 | Plant response rating: Deadnettle [10, 11]: 40 | Plant response rating: Deadnettle [10, 12]: 70 | Plant response rating: Deadnettle [10, 13]: 80 | Plant response rating: Deadnettle [10, 14]: 85 | Plant response rating, Deadnettle [10, 15]: 20
